Key:
Mus musculus [1] = assay: Induction of catalepsy in Mus musculus albino (mouse) at 25 mg/kg, ip measured after 20 min for 5 min; assay type: organism-based; design: dose 25 mg/kg, route intraperitoneal; settings: in vivo
Mus musculus [2] = assay: Atypical antipsychotic activity in Mus musculus albino (mouse) assessed as inhibition of apomorphine-induced climbing behaviour at 60 mg/kg, ip administered 30 min prior to apomorphine-challenge measured after 5 min for 30 min relative to control; assay type: functional; settings: route intraperitoneal
Mus musculus [3] = assay: Induction of catalepsy in ip dosed Mus musculus albino (mouse) measured after 20 min for 5 min; assay type: organism-based; settings: in vivo
Mus musculus [4] = assay: Atypical antipsychotic activity in Mus musculus albino (mouse) assessed as inhibition of 5HTP-induced head twitching at 25 mg/kg, ip administered 30 min prior to 5-HTP-challenge measured after 20 min for 5 min
Mus musculus [5] = species on record: Mus musculus; assay: animal or person; settings: albino, ip, read-out: INH
Description: Atypical antipsychotic activity in Mus musculus albino (mouse) assessed as inhibition of apomorphine-induced climbing behaviour at 25 mg/kg, ip administered 30 min prior to apomorphine-challenge measured after 5 min for 30 min relative to control

Structure (SMILES) | Activity (Mus musculus [1]) [%] | inhibition in vivo at 60 mg/kg (Mus musculus [2]) [%] | Activity (Mus musculus [3]) | inhibition in vivo at 25 mg/kg (Mus musculus [4]) [%] | inhibition in vivo at 25 mg/kg (Mus musculus [5]) [%]
Cc1ccc(OCCCOc2ccc3sc(=O)oc3c2)cc1 | 39.48 | 52.4 | Dose-dependent effect | 77.3 | 
O=c1oc2cc(OCCCN3CCNCC3)ccc2s1 | 42.39 | 62.3 | Dose-dependent effect | 68.2 | 
O=c1oc2cc(OCCCOc3ccc([N+](=O)[O-])cc3)ccc2s1 | 43.92 | 67.3 | Dose-dependent effect | 80 | 
O=c1oc2cc(OCCCN3CCCCC3)ccc2s1 | 41 | 51.2 | Dose-dependent effect | 67.3 | 
O=c1oc2cc(OCCCOc3ccc4ccccc4c3)ccc2s1 | 41.22 | 47 | Dose-dependent effect | 61.1 | 
CCN(CC)CCCOc1ccc2sc(=O)oc2c1 | 37.11 | 53.3 | Dose-dependent effect | 63.4 | 
O=C1CCc2ccc(OCCCCN3CCN(c4cccc(Cl)c4Cl)CC3)cc2N1 [ARIPIPRAZOLE] | 29.34 |  |  | 80.2 | 62.4
O=c1oc2cc(OCCCN3CCOCC3)ccc2s1 | 39.27 | 69.6 | Dose-dependent effect | 71.5 | 
O=c1oc2cc(OCCCOc3cccc4ccccc34)ccc2s1 | 49.21 | 39 | Dose-dependent effect | 58.3 | 
O=c1oc2cc(OCCCn3cnnc3)ccc2s1 | 36.98 | 70 | Dose-dependent effect | 79.3 | 
O=c1oc2cc(OCCCOc3ccc(Cl)cc3)ccc2s1 | 33.71 | 49.3 | Dose-dependent effect | 77.9 | 
